≈ marks a conversion by molar mass, not a printed value. Like-named read-outs stand apart in the source and are kept apart here.
Experiments:
advanced GIST = test: Randomized, double-blind, placebo-controlled study of ripretinib in advanced GIST (Example 1): efficacy; type: in vivo, human
Protocol: (§1) Patients were randomized 2:1 to either 150 mg of ripretinib or placebo once daily. The primary efficacy endpoint is progression-free survival (PFS) as determined by independent radiologic review using modified Response Evaluation Criteria in Solid Tumors (RECIST). Secondary endpoints as determined by independent radiologic review using modified RECIST include Objective Response Rate (ORR), Time to Tumor Progression (TTP) and Overall Survival (OS).
Results. This study achieved its primary endpoint of improved PFS as determined by blinded independent central radiologic review using modified Response Evaluation Criteria in Solid Tumors (RECIST) version 1.1.
Patients whose disease progressed during the double blind phase of the study were escalated to 150 mg BID ripretinib, continued at the 150 mg QD dose, or discontinued in an open label-phase of the study.

[1] = tested on: patients with advanced GIST; test: Example 1 study: treatment-emergent adverse events, safety; type: in vivo, human
Protocol: as §1
The safety of ripretinib and the impact of alopecia and palmar-plantar erythrodysesthesia (PPES) on patient-reported outcomes (PROs) of patients treated in the study described in Example 1 herein are described. […] When stratified by alopecia and PPES, patient reported assessments of function, overall health, and overall quality of life were maintained over time.

[2] = tested on: patients with advanced GIST; test: Example 1 study: patient reported outcomes (EQ-5D-5L VAS, EORTC QLQ-C30); type: in vivo, human; conditions: 150 mg QD
Protocol: Patient reported outcomes were assessed by EQ-5D-5L, which provides a visual analogue scale (VAS), and EORTC QLQ-C30, which provides physical function and role function scales. The EQ-5D-5L VAS (or EQ-VAS) records the respondent's overall current health on a vertical visual analogue scale and provides a quantitative measure of the patient's perception of overall health. These patient outcomes were reported across 28-day cycles of receiving 150 mg QD ripretinib or placebo.
The EORTC QLQ-C30 is an assessment of function and symptoms of therapy by cancer patient, and is not specific to any cancer. The EORTC QLQ-C30 is a 30-question plus one global health status, including 5 functional scales, 3 symptom scales and a global health status.

GIST = test: Clinical study in second-line through fourth-line plus GIST, ≥100 mg daily (Example 2): efficacy; type: in vivo, human
Protocol: Results. Data from 178 GIST patients receiving ripretinib at doses of ≥100 mg daily are noted in Table 2. The table includes investigator-assessed objective response rate (ORR) by best response, disease control rate (DCR) and median progression free survival (mPFS), all of which were determined by Response Evaluation Criteria in Solid Tumors (RECIST) version 1.1.
In Table 2, (1) indicates overall number of patients (n=178) remains the same as prior data presented at ESMO 2018; based on additional data cleaning, one patient from each of 2nd line and 4th/≥4th line were reclassified as 3rd line patients; (2) refers to median treatment durations were: 2nd line=44 weeks, 3rd line=48 weeks, 4th line=46 weeks and ≥4th line=29 weeks; (3) refers to including 60 patients who elected for intra-patient dose escalation from 150 mg QD to 150 mg BID; and (4) refers to the number of patients including 60 patients from 4th line.

Solubility in buffers = type: physicochemical
CYP3A4 = CYP3A4 (Homo sapiens, UniProt P08684); test: Contribution of CYP enzymes to metabolism, in vitro data; type: in vitro ADME; conditions: base model, based on in vitro data
Chain of CYP3A4 (P08684 whole entry): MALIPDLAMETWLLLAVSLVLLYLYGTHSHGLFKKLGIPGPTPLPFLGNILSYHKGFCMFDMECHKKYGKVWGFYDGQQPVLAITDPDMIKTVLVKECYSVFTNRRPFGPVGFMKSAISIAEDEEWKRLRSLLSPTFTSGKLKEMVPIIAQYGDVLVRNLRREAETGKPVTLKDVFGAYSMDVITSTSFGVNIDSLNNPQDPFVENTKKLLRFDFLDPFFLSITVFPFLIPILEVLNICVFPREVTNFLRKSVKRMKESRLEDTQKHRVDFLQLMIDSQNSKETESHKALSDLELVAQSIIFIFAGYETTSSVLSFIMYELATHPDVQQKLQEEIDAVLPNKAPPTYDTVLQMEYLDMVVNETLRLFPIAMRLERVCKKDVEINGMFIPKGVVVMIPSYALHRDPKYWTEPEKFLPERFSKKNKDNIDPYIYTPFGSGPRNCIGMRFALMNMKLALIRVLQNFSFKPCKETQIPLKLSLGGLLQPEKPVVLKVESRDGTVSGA
From the text: (§2) A PBPK model that included a mechanistic absorption model was developed.

[3] = Observed clinical PK after single and multiple doses; type: in vivo; conditions: human, plasma, oral; SD administration, healthy participants
Protocol: CYP3A4 inactivation parameters and induction parameters were subsequently incorporated in the model to assess the net effect on drug clearance at steady state. Due to the uncertainty in the in vitro CYP3A4 MBI data and CYP3A4 induction data, a series of sensitivity analysis was performed. […] Therefore, the in vitro CYP3A4 interaction data were used in the final model. The simulated profiles of ripretinib and DP-5439 in virtual participants were compared to the clinical data. […] The predicted mean AUC0-12 values for DP-5439 on Day 1 were within 2-fold (majority within 1.5-fold) of the observed values, except for the 250-mg QD dose. The mean AUC0-12 and Cmax values for DP-5439 on Day 15 were under-predicted. […] For example, the reported AUCs for ripretinib and DP-5439 at the 150-mg QD dose level were 1.66 and 5.29, respectively. […] The mechanisms for the accumulation of DP-5439 were unclear.

[4] = PBPK model of ripretinib and DP-5439 (Simcyp Simulator)
From the text: as §2
Thus, potential auto-induction and auto-inhibition effects were captured within the model.
Single dose (SD) PK data from participants with mild, moderate, and severe HI were used to refine and/or verify the PBPK model. […] Subsequently, the corresponding plasma concentration-time profiles in HI participants were likewise simulated and compared to the observed data.
Predictions of plasma drug concentration-time profiles, clearance and DDIs were performed in the Simcyp Simulator using a population of virtual participants. The default healthy participant population was applied in all simulations involving healthy participants. […] With the exception of demographic data, all parameter values for the healthy participant population were the same as those used for the North European Caucasian population.
For simulations involving cancer participants, the North European Caucasian population was used to accommodate the wider age range observed in this population (19 to 87 years old; median 61 years). Weibull age distribution was applied with alpha and beta values of 5.47 and 66.5 years for male participants and 5.22 and 68.57 years for female participants. Age, height and weight distributions for the simulated virtual participant population were consistent with those from the first-in-human dose-escalation study in cancer patients.
For simulations involving participants with HI, 3 population models have been developed for the Simcyp Simulator and are based on the 3 Child-Pugh categories (CP-A, CP-B and CP-C). […] When reduced hepatic size was also taken into account, overall CYP3A4 expression in CP-A, CP-B and CP-C participants was reduced to 69%, 36% and 20%, respectively, to that of healthy participants.

[5] = patients crossed over from placebo to ripretinib

## CCn1c(=O)c(-c2cc(NC(=O)Nc3ccccc3)c(F)cc2Br)cc2cnc(NC)cc21 [ripretinib]
Advanced GIST; 150 mg QD, FIG. 17
  benefit over placebo (PFS, OS), primary Exon 11 and Exon 9 mutation: derive a benefit
Advanced GIST; 150 mg once daily
  OS rate at 12 months: 65.4%
  PFS rate at 6 months: 51%
  reduction of risk of disease progression or death compared to placebo: 85%
Advanced GIST; 150 mg once daily, initial ripretinib arm
  median PFS: 27.6 weeks
Advanced GIST; 150 mg once daily, BICR, modified RECIST 1.1, double-blind cut
  median PFS: 6.3 months
Advanced GIST; 150 mg once daily, BICR, modified RECIST 1.1, double-blind cut, listed as Ripretinib
  median PFS: 6.3 (4.6, 6.9) months
Advanced GIST; FIG. 26A-D
  PFS compared to placebo in subgroups with Exon 9, 11, 13 or 17 KIT mutations: PFS benefit in all assessed patient subgroups
Advanced GIST; double-blind cut
  Overall survival: number of deaths (%): 26 (31)
  PFS by BICR: deaths, number (%): 5 (6)
  PFS by BICR: number of events (%): 51 (60)
  PFS by BICR: progressive disease, number (%): 46 (54)
Advanced GIST; modified RECIST 1.1, double-blind cut
  objective/overall response rate by BICR: 9.4%
Advanced GIST; modified RECIST 1.1, double-blind cut, listed as Ripretinib
  objective/overall response rate by BICR: 9%
Advanced GIST; open-label cut
  Median OS (95% CI): Not Reached
  Median PFS (95% CI): 6.3 (4.6, 8.1) months
  Overall Response Rate by BICR: 12%
  Overall survival: number of deaths (%): 38 (45)
  PFS by BICR: deaths, number (%): 6 (7)
  PFS by BICR: number of events (%): 64 (75)
  PFS by BICR: progressive disease, number (%): 58 (68)
Advanced GIST; [5]
  median OS: 11.6 months
  median PFS: 20.0 weeks
Advanced GIST; patients initially randomized to ripretinib, double-blind cut
  median OS: 15.1 months
Advanced GIST; patients initially randomized to ripretinib, double-blind cut, listed as Ripretinib
  median OS: 15 (12, 15) months
[1]; female, human, in vivo
  alopecia in females: 56.8%
[1]; human, in vivo
  Grade 3 or 4 TEAE abdominal pain: 7%
  Grade 3 or 4 TEAE hypertension: 7%
  TEAE alopecia (most common TEAE): 51.8%
  patients reporting PPES: 21.2%
  patients with Grade 3 or 4 TEAEs: 42 (49%)
  patients with a TEAE leading to dose interruption: 23.5%
  patients with a TEAE leading to dose reduction: 7.1%
[1]; in vivo
  TEAEs during the crossover period: no safety concerns
  patients with grade 3 PPES: no patients
  serious adverse events of alopecia or PPES: no serious adverse events
[1]; male, human, in vivo
  alopecia in males: 43.2%
[1]; ripretinib arm
  patients with a TEAE leading to death: 5.9%
[2]; baseline to C2D1
  EORTC QLQ-C30 physical function score, average improvement from baseline: 1.6
  EORTC QLQ-C30 role function score, average improvement from baseline: 3.5
[2]; baseline to Cycle 2, Day 1
  EQ-VAS score, average improvement from baseline: 3.7
[2]; scale 1 to 7
  EORTC QLQ-C30 Question C29 (overall health) score improvement: 0.20
  EORTC QLQ-C30 Question C30 (overall quality of life) score improvement: 0.28
GIST; Fourth-Line (n = 60)
  Disease Control Rate at 3 Months: 73%
  Median Progression Free Survival (mPFS): 30 weeks
  Objective Response Rate by Best Response, includes unconfirmed: 15%
  Objective Response Rate, confirmed only: 8%
GIST; Second-Line (n = 37)
  Disease Control Rate at 3 Months: 81%
  Median Progression Free Survival (mPFS): 42 weeks
  Objective Response Rate, confirmed only: 22%
GIST; Second-Line (n = 37), ≥100 mg daily, RECIST 1.1, investigator
  Objective Response Rate by Best Response, includes unconfirmed: 30%
GIST; Third-Line (n = 31)
  Disease Control Rate at 3 Months: 80%
  Median Progression Free Survival (mPFS): 40 weeks
  Objective Response Rate by Best Response, includes unconfirmed: 23%
  Objective Response Rate, confirmed only: 13%
GIST; ≥Fourth-Line (n = 110)
  Disease Control Rate at 3 Months: 66%
  Median Progression Free Survival (mPFS): 24 weeks
  Objective Response Rate by Best Response, includes unconfirmed: 11%
  Objective Response Rate, confirmed only: 7%
Solubility in buffers
  solubility: pH-dependent solubility
Solubility in buffers; fassgf or other biorelevant, intestinal buffer (pH 6.5), read-out: solubility
  solubility: 123 µg/mL (≈ 241 µM)
Solubility in buffers; simulated gastric fluid, gastric buffer (pH 2.0), read-out: solubility
  solubility: 178 µg/mL (≈ 349 µM)
CYP3A4
  share of metabolism assigned to CYP3A4: 59%
[3]
  half-life: ~14 h
[4]; 150 mg QD dose
  all predictions relative to observed: ≤ 1.25 fold
[4]; Day 1 and Day 15, except 250-mg QD dose
  predicted mean AUC0-12 and Cmax relative to observed values: ≤ 1.5 fold

From patent US11779572B1, “Methods of treating gastrointestinal stromal tumors” (Deciphera Pharmaceuticals, LLC, priority 2022, dated 2023)
